Experimental data as given in ChEMBL document CHEMBL5665443, “Enzyme Inhibitor Single Concentration assay results for EUbOPEN Chemogenomics Library” (2024).

Legend:
Details in all cases: Hit No
[1] = molecular target: Methyl-CpG-binding domain protein 4 (Homo sapiens) (UniProt O95243);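 note: MBD4 activity read as fluorescence at 594 nm from cleavage and release of a quenched duplex DNA oligonucleotide, with APE1 coupled to incise the strand and raise turnover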
Description: Inhibition of MBD4 by quantifying inhibition of MBD4-mediated cleavage and dissociation of quenched duplex DNA oligonucleotides, measured as fluorescence at 594 nm. To generate a functional strand incision and increase turn-over this assay is coupled to APE1.

[2] = molecular target: T1, Adenine DNA glycosylase (Homo sapiens) (UniProt Q9UIF7);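 note: human MUTYH activity read as 594 nm fluorescence from cleavage and release of a quenched DNA duplex, coupled with APE1 for strand incision, lower signal meaning inhibition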
T1 sequence (whole entry): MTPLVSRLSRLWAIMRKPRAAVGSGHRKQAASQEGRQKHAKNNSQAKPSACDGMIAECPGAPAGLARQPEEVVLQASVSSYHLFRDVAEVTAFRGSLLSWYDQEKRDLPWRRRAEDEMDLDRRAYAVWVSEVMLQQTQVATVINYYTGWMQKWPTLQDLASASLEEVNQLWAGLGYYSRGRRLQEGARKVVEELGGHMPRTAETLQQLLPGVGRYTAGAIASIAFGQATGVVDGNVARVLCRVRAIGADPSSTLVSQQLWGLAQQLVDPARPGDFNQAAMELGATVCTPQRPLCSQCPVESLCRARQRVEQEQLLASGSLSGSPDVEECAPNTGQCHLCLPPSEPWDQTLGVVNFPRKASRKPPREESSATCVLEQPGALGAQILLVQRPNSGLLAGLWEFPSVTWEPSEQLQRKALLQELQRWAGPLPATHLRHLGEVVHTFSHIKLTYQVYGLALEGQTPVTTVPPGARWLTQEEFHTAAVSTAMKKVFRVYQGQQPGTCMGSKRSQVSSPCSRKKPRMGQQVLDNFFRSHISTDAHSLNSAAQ
Description: Inhibition of MUTYH by quantifying inhibition of MUTYH-mediated cleavage and dissociation of quenched duplex DNA oligonucleotides, measured as fluorescence at 594 nm. To generate a functional strand incision and increase turn-over this assay is coupled to APE1.

[3] = molecular target: Endonuclease 8-like 1 (Homo sapiens) (UniProt Q96FI4);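 note: fluorescence at 594 nm from quenched duplex DNA oligonucleotides released by NEIL1 cleavage and strand separation, reported as reduction of this enzyme activity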
Chain of Endonuclease 8-like 1 (Homo sapiens) (Q96FI4 whole entry): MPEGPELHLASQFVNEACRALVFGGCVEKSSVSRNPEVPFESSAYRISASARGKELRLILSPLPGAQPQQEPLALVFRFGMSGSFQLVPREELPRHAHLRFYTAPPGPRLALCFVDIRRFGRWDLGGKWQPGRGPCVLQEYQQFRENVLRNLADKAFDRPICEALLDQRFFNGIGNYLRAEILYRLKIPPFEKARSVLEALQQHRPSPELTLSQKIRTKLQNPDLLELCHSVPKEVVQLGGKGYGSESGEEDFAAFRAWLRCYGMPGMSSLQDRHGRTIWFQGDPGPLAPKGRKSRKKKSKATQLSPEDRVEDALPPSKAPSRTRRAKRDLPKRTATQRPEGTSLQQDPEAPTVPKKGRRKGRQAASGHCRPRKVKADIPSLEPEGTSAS
Description: Inhibition of NEIL1 by quantifying inhibition of NEIL1-mediated cleavage and dissociation of quenched duplex DNA oligonucleotides, measured as fluorescence at 594 nm.

[4] = molecular target: T2, Endonuclease 8-like 2 (Homo sapiens) (UniProt Q969S2);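 note: fluorescence at 594 nm reports NEIL2 cutting and release of a quenched double-stranded DNA oligo substrate, reduced signal read as inhibition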
T2 sequence (whole entry): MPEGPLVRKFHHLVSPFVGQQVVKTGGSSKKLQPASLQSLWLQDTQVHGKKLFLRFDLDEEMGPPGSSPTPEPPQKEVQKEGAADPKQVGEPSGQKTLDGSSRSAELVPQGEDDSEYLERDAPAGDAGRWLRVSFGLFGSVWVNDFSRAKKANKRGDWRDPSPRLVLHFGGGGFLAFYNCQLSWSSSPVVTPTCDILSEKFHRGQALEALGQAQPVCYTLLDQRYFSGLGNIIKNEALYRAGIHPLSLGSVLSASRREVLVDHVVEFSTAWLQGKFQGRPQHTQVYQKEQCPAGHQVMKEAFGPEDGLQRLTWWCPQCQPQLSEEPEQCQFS
Description: Inhibition of NEIL2 by quantifying inhibition of NEIL2-mediated cleavage and dissociation of quenched duplex DNA oligonucleotides, measured as fluorescence at 594 nm.

[5] = molecular target: T3, Endonuclease III-like protein 1 (Homo sapiens) (UniProt P78549);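 note: enzyme assay tracking NTHL1 cutting and release of a quenched double-stranded DNA oligo substrate, read as fluorescence at 594 nm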
T3 sequence (whole entry): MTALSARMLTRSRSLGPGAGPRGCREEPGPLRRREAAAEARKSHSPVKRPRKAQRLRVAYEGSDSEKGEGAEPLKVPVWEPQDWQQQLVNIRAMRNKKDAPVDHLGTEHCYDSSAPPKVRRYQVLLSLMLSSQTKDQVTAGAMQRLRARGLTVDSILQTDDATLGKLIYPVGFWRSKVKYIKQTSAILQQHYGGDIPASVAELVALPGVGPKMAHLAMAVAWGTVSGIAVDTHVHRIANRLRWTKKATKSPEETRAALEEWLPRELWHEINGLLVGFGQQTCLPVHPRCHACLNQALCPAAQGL
Description: Inhibition of NTHL1 by quantifying inhibition of NTHL1-mediated cleavage and dissociation of quenched duplex DNA oligonucleotides, measured as fluorescence at 594 nm.

[6] = molecular target: N-glycosylase/DNA lyase (Homo sapiens) (UniProt O15527);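 note: OGG1 cleavage of a quenched duplex DNA oligonucleotide, coupled to APE1 for strand incision, read as fluorescence at 594 nm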
Chain of N-glycosylase/DNA lyase (Homo sapiens) (O15527 whole entry): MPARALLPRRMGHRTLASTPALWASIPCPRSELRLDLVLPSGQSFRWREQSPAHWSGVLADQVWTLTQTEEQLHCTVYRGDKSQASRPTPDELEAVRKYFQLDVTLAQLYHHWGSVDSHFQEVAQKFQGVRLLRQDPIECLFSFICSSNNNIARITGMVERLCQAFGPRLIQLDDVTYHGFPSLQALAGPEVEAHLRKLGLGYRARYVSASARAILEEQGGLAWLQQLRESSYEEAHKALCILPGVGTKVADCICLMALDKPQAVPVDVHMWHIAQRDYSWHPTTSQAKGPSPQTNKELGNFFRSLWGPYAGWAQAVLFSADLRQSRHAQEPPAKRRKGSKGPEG
Description: Inhibition of OGG1 by quantifying inhibition of OGG1-mediated cleavage and dissociation of quenched duplex DNA oligonucleotides, measured as fluorescence at 594 nm. To generate a functional strand incision and increase turn-over this assay is coupled to APE1.

[7] = molecular target: T4, Single-strand selective monofunctional uracil DNA glycosylase (Homo sapiens) (UniProt Q53HV7);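 note: enzymatic SMUG1 assay coupled with APE1, reading fluorescence at 594 nm released when a quenched double-stranded DNA oligonucleotide substrate is cleaved and separated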
T4 sequence (whole entry): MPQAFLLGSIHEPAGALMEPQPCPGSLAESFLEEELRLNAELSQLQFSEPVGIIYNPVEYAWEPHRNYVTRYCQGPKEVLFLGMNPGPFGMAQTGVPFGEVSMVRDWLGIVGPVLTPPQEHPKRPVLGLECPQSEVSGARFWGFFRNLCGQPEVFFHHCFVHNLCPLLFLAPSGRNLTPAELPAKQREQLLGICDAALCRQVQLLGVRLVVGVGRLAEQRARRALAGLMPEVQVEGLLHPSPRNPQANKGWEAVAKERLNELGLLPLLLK
Description: Inhibition of SMUG1 by quantifying inhibition of SMUG1-mediated cleavage and dissociation of quenched duplex DNA oligonucleotides, measured as fluorescence at 594 nm. To generate a functional strand incision and increase turn-over this assay is coupled to APE1.

[8] = molecular target: G/T mismatch-specific thymine DNA glycosylase (Homo sapiens) (UniProt Q13569);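 note: human TDG cleavage of quenched duplex DNA oligonucleotides coupled to APE1, strand release read as fluorescence at 594 nm, inhibition of TDG activity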
Chain of G/T mismatch-specific thymine DNA glycosylase (Homo sapiens) (Q13569 whole entry): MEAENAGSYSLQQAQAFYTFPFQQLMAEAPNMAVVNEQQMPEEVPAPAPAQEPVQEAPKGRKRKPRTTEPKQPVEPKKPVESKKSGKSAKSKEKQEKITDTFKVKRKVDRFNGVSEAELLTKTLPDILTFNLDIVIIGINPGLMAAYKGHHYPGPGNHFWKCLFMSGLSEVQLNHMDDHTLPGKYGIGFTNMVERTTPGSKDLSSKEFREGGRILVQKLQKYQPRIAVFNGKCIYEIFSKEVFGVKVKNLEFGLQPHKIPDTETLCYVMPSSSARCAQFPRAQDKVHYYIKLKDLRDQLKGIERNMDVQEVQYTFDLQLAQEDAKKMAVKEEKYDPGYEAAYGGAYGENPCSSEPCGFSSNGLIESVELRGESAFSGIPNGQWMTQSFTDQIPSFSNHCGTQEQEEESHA
Description: Inhibition of TDG by quantifying inhibition of TDG-mediated cleavage and dissociation of quenched duplex DNA oligonucleotides, measured as fluorescence at 594 nm. To generate a functional strand incision and increase turn-over this assay is coupled to APE1.

[9] = molecular target: Uracil-DNA glycosylase (Homo sapiens) (UniProt P13051);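 note: UNG excision on a quenched double-stranded DNA oligo probe, with APE1 added for strand incision and turnover, read as fluorescence at 594 nm as strands separate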
Chain of Uracil-DNA glycosylase (Homo sapiens) (P13051 whole entry): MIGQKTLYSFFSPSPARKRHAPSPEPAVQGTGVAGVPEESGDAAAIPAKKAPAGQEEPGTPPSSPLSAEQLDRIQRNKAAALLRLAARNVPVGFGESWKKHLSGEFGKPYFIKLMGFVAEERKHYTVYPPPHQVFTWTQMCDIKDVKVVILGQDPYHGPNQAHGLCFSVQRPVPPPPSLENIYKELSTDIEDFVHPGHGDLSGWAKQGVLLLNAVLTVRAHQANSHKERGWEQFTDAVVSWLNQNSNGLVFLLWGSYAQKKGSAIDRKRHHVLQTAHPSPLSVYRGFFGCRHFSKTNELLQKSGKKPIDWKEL
Description: Inhibition of UNG by quantifying inhibition of UNG-mediated cleavage and dissociation of quenched duplex DNA oligonucleotides, measured as fluorescence at 594 nm. To generate a functional strand incision and increase turn-over this assay is coupled to APE1.

Chain of Methyl-CpG-binding domain protein 4 (Homo sapiens) (O95243 whole entry, the tested form may be a part): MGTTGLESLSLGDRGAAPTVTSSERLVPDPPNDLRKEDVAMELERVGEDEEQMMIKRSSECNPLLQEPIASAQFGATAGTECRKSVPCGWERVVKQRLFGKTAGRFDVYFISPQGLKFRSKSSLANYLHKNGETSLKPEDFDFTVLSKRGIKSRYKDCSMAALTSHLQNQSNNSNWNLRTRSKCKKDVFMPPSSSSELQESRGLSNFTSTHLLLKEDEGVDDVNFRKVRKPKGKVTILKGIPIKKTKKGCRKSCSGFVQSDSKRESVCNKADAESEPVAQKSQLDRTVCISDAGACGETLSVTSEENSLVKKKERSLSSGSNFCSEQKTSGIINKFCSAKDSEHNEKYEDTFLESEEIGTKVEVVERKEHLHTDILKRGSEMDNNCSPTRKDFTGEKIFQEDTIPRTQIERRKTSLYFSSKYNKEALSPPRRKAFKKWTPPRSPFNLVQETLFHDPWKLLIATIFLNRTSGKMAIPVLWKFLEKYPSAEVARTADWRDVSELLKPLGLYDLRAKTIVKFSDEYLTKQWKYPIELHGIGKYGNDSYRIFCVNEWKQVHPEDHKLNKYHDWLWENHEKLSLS

Compound	inhibition ([1]; Compound Concentration 10.0 uM) [%]	inhibition ([2]; Compound Concentration 10.0 uM) [%]	inhibition ([3]; Compound Concentration 10.0 uM) [%]	inhibition ([4]; Compound Concentration 10.0 uM) [%]	inhibition ([5]; Compound Concentration 10.0 uM) [%]	inhibition ([6]; Compound Concentration 10.0 uM) [%]	inhibition ([7]; Compound Concentration 10.0 uM) [%]	inhibition ([8]; Compound Concentration 10.0 uM) [%]	inhibition ([9]; Compound Concentration 10.0 uM) [%]	inhibition ([1]; Compound Concentration 1.0 uM) [%]	inhibition ([2]; Compound Concentration 1.0 uM) [%]	inhibition ([3]; Compound Concentration 1.0 uM) [%]	inhibition ([4]; Compound Concentration 1.0 uM) [%]	inhibition ([5]; Compound Concentration 1.0 uM) [%]	inhibition ([6]; Compound Concentration 1.0 uM) [%]	inhibition ([7]; Compound Concentration 1.0 uM) [%]	inhibition ([8]; Compound Concentration 1.0 uM) [%]	inhibition ([9]; Compound Concentration 1.0 uM) [%]
Oc1ccc2c3c1O[C@H]1c4[nH]c5c(c4C[C@@]4(O)[C@@H](C2)N(CC2CC2)CC[C@]314)C[C@@]1(O)[C@H]2Cc3ccc(O)c4c3[C@@]1(CCN2CC1CC1)[C@H]5O4	-5.37	-2.67	-5.39	-3.73	5.59	7.55	-7.06	10.6	1.76	–	–	–	–	–	–	–	–	–
Cc1cccc(-c2[nH]c(CNc3ccccc3F)nc2-c2ccc3ncnn3c2)n1	–	–	–	–	–	–	–	–	–	12.7	6.74	-2.11	6.16	-6.89	4.54	-5.72	35.6	-5.91
CCCCCCCN(CCc1ccc(SC(C)(C)C(=O)O)cc1)C(=O)Nc1ccc(F)cc1F	74.5	26	-8.92	-7.12	5.29	44.6	26.9	50.5	3.11	–	–	–	–	–	–	–	–	–
COc1ccccc1Nc1nc(-c2nn(Cc3c(F)cc(OCCCO)cc3F)c3ccccc23)ncc1OC	57	-2.18	-6.35	3.85	–	4.46	13	97.1	2.87	54.1	–	-4.09	–	-4.79	–	10.9	39	0.477
CNC(=O)c1cc(C(=O)N[C@H]2[C@@H]3COC[C@@H]32)cc2c1O[C@@H](CF)[C@@H]2c1ccccc1	54.8	-6.61	6.68	8.44	-3.92	6.72	8.28	52.5	4.27	–	–	–	–	–	–	–	–	–
CN(C)c1ncc2cc(-c3ccc(-c4ncccc4F)cc3Cl)c(=O)n(C[C@H]3OC[C@H](N)CO3)c2n1	-0.894	13.7	2.65	1.58	-1.31	-0.214	26.9	41.3	6.12	–	–	–	–	–	–	–	–	–
Cc1c(N2CCCC2)nc2ccc(Br)cc2c1C(=O)NC[C@H](CCC(=O)O)c1ccccc1Cl	69.2	22	3.19	-0.744	-1.95	31.5	12.3	54	5.08	–	–	–	–	–	–	–	–	–
CCO[C@H](COc1ccc(C(F)(F)F)cc1)CSc1ccc(OCC(=O)O)c(C)c1	71.4	16.2	-4.99	3.59	-4.57	20.8	20.8	59.2	6.42	–	–	–	–	–	–	–	–	–
CC[C@H](Nc1c(C#N)c(-c2ccc(-c3cccc(C)c3F)cc2)nc2cnccc12)C(=O)O	59.4	34.2	1.86	-0.764	5.22	43.2	12	51.7	6.04	–	–	–	–	–	–	–	–	–
Nc1ncc2c(n1)-c1c([nH]c3ccc(C4CC4)cc13)CCCC2	–	–	–	–	–	–	–	–	–	4.16	-1.15	2.52	0.505	2.18	3.08	19.5	29.2	3.77
COCCc1ccc(-c2c(C)nc3c(N4CCOCC4)ccnn23)cn1	79.3	3.45	-9.68	0.531	-3.26	9.87	17.6	47.5	6.75	–	–	–	–	–	–	–	–	–
C[C@@H]1CN(c2cc(-c3nn(C)c4ccc(OC5(C)CC5)cc34)ncn2)C[C@H](C)O1	67.5	-0.542	4.71	1.04	-7.86	–	15.6	63	4.62	101	-9.65	-5.67	-5.15	–	11.8	3.32	34.4	-5.93
C=CC(=O)Nc1ccc2[nH]c(=O)n(C3CCN(Cc4ccc(-c5nc6cc[nH]c(=O)c6cc5-c5ccccc5)cc4)CC3)c2c1	24	23.4	3.12	4.67	2.5	49.4	25.8	49	4.17	–	–	–	–	–	–	–	–	–
Cc1cc(SCc2sc(-c3ccc(C(F)(F)F)cc3)nc2C)ccc1OCC(=O)O	60	14.6	-2.11	1.55	17.8	62.7	18.5	98.5	-0.945	–	–	–	–	–	–	–	–	–
C[C@]1(O)C[C@@H](c2nc(-c3ccc4ccc(-c5ccccc5)nc4c3)c3c(N)nccn32)C1	2.7	25.7	4.89	12.6	10.6	-7.95	18.4	57.9	7.32	–	–	–	–	–	–	–	–	–
Cc1cc([C@@H](C)Nc2ccccc2C(=O)O)c2nc(N3CCOCC3)cc(=O)n2c1	-6.46	10.5	0.798	2.93	-1.31	12	20.9	50.8	3.71	–	–	–	–	–	–	–	–	–
CCOc1cc(N2CCC(O)CC2)ccc1Nc1ncc2c(n1)N(C)c1ccccc1C(=O)N2C	17.2	18.6	-3.56	2.66	1.48	-8.63	19.5	59.4	12.3	–	–	–	–	–	–	–	–	–
O=C(O)c1ccc(-c2coc3ncc(-c4ccccc4)cc23)cc1Cl	-2.05	30.1	7.67	1.31	1.48	13.2	25.7	45.9	3.81	–	–	–	–	–	–	–	–	–
CC(C)OC(=O)C1=CN(C(=O)c2ccc(F)c(F)c2)CC(C)(C)c2c1[nH]c1ccccc21	66.8	4.92	-3.02	3.08	-1.95	18.3	27.6	46.7	5.72	–	–	–	–	–	–	–	–	–
C[C@@H]1CCc2ncc(F)cc2[C@H]2CCCN2c2ccn3ncc(c3n2)C(=O)N1	0.277	17.4	2.25	-1.65	-1.31	2.29	26.7	40.3	4.92	–	–	–	–	–	–	–	–	–
CN(C)[C@@H]1CCN(c2cc(-c3ccccc3)nc3ccnn23)C1	79.8	10.5	4.86	22.2	-6.55	7.46	16.1	46.8	7.63	–	–	–	–	–	–	–	–	–
